# Like-named read-outs stand apart in the source and are kept apart here.
# How the values were obtained:
# [1] = molecular target: T1, 5-lipoxygenase (5-LO) (Oryctolagus cuniculus, UniProt G1SNX0); assay: Radioisotopic assay of 5-LO activity (LTB4 formation from 14C-arachidonic acid) in rabbit peritoneal PMNL stimulated with A-23187; assay type: cell-based; conditions: for inhibition at 1 µM: rabbit peritoneal neutrophils (PMNL), mean ± s.d. of three experiments in duplicate, read-out: % Inhibition (percent inhibition of LTB4 formation); for in vitro 5-LO activity in words: peritoneal PMNL
# T1 construct: Polymorphonuclear leukocytes (PMNLs) were purified from rabbits by glycogen-intraperitoneal elicited intraperitoneal recruitment; endogenous in cells; host or cells: rabbit peritoneal polymorphonuclear leukocytes (PMNL), glycogen-elicited
# T1 sequence (G1SNX0 1-674): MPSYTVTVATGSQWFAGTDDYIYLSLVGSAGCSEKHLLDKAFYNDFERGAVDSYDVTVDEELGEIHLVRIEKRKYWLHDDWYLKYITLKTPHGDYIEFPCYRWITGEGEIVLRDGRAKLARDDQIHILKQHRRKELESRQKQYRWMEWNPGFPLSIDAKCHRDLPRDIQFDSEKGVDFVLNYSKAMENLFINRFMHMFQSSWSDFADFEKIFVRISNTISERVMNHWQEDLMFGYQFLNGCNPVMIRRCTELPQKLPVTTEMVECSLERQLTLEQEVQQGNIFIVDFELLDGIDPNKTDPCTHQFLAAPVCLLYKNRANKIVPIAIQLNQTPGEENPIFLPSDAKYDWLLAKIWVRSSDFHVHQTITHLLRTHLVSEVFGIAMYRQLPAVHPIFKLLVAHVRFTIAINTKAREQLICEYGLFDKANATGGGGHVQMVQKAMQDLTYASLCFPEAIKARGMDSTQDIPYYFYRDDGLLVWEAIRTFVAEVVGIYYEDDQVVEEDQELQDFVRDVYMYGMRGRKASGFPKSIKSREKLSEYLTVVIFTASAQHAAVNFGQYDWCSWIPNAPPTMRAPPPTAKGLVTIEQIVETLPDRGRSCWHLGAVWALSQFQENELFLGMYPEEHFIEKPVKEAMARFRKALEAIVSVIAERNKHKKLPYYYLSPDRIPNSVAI
# Description: The 5-LO enzyme, which is found primarily in cells of myeloid origin such as polymorphonuclear leukocytes (“PMNL”), eosinophils, and macrophages, catalyzes the first step of the biochemical pathway in which arachadonic acid (“AA”) is,converted into LTA4. […] To test the inhibition of the quinone derivatives on the activity of 5-LO rabbit polymorphonuclear leucocytes (PMNLs) were used.
# Polymorphonuclear leukocytes (PMNLs) were purified from rabbits by glycogen-intraperitoneal elicited intraperitoneal recruitment, as descrited in T. Yatabe et al., “Studies on 5-lipoxygenase inhibitors: I. Synthesis and 5-lipoxygenase inhibitory activity of novel hydroxanic acid derivatives,” chem. Pharm. Bull., vol. 46, pp. 966-972 (1998). An intraperitoneal injection of 300 mL of 0.1% (w/v) glycogen in sterile saline was administered 6 h before the rabbits were sacrificed by an intravascular injection of Nembutal. Peritoneal exudates were collected in 5 μM EGTA, and residual red cells were removed by lysis in ammonium chloride. These cell preparations were obtained with greater than 96% purity, as assessed by Wright-Giemsa staining and greater than 95% viability as assessed by Trypan blue exclusion.
# PMNL cells in suspension were pre-incubated for 20 min at room temperature with ^14C-labeled arachadonic acid (AA) and diluted to 3000 cells μL^−1. Thereafter, the calcium ionophore A-23187 (1 μg/mL) was added to stimulate LTB4 production, and the cells further incubated for 15 min under stirring at 37° C. After incubation, the aqueous samples were successively shaken with a mixture of chloroform/methanol/formic acid (12:12:1) for 30 sec and then with chloroform for 10 sec. Organic phases containing LTB4, 5-HPETE (5-hydroperoxyeicosatetraenoic acid), diHPETEs (dihydroperoxyeicosatetraenoic acids), and prostaglandins (PGs) were pooled, evaporated to dryness under nitrogen and dissolved into a small amount of chloroform-MeOH (1:1). Separation of the 5-LO metabolites was performed by thin layer chromatography (TLC) on silica gel G plates developed in diethyl ether-hexane-acetic acid (60:40:1, v/v/v).
# Bands containing 5-lipoxygenase (5-LO) metabolites were scraped from the TLC plates, and ^14C levels were quantitatively measured by liquid scintillation. 5-LO activity was an obtained from the amount of ^14C-arachidonic acid converted into LTB4 after the prelabeled PMNL cells were stimulated to produce LTB4 by the calcium ionophore as described above. IC50 was calculated as the concentration of the 5-LO antagonist that produced 50% inhibition of the metabolite conversion.
# […] IC50 values, calculated as theconcentration of test compound required to cause 50% inhibition of LTB4 formation, were also determined for some representative examples. […] These compounds, in general, correspond to compounds bearing the more lipophilic quinone fragments. […] See S. Ohkawa et al., “Dual Inhibition of Thromboxane A2 Synthetase and 5-Lipoxygenase with Scavenging Activity of Active Oxygen Species. Synthesis of a Novel Series of (3-Pyridylmethyl)benzoquinone Derivatives,” J. Med. Chem., vol. 34, pp. 267-276 (1991).
# [2] = molecular target: COX-1 (Homo sapiens, UniProt P23219); assay: In vitro inhibition of COX-1 activity; conditions: read-out: COX-1 percent inhibition
# Description: (§1) Percent inhibition mean values ±SD from at least three individual determinations are shown.
# [3] = test system: arachidonic acid-induced ear inflammation in mice; assay: Arachidonic acid-induced ear inflammation in mice (AAE test); assay type: in vivo; conditions: for change in vivo at 50 µg/ear / change in vivo at 100 µg/ear / change in vivo at 250 µg/ear: Mus musculus, mice, topical, read-out: % inhibition of AA-induced ear inflammation; for change in vivo at 50 µg/ear: 50 μg/ear; for change in vivo at 100 µg/ear: 100 μg/ear; for change in vivo at 250 µg/ear: 250 μg/ear
# [4] = molecular target: T2, COX-2 (Homo sapiens, UniProt P35354); assay: In vitro inhibition of COX-2 activity; conditions: read-out: COX-2 percent inhibition
# T2 sequence (P35354 18-604): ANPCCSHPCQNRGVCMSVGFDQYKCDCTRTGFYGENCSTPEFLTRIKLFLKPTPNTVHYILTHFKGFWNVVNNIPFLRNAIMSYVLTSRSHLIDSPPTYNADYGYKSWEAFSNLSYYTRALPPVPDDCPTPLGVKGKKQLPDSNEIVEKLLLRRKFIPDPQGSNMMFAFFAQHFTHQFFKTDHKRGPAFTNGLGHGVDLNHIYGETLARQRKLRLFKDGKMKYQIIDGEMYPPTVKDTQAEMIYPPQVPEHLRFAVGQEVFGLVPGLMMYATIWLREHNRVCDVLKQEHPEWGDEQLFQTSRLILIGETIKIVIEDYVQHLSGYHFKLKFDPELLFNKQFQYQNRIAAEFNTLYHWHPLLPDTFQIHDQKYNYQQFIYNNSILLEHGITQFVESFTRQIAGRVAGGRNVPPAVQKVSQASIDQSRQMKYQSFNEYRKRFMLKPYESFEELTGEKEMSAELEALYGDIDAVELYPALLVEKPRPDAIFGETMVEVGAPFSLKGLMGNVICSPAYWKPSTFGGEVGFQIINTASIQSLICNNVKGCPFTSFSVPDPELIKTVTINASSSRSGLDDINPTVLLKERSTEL
# Description: as §1
# [5] = molecular target: T3, 5-LO (Rattus norvegicus, UniProt P12527); assay: 5-LO inhibition by radioimmunoassay (RIA) in rat peritoneal PMNL; conditions: inhibitors at 'AM final concentration' [sic], mean ± SD
# T3 sequence (P12527 1-673): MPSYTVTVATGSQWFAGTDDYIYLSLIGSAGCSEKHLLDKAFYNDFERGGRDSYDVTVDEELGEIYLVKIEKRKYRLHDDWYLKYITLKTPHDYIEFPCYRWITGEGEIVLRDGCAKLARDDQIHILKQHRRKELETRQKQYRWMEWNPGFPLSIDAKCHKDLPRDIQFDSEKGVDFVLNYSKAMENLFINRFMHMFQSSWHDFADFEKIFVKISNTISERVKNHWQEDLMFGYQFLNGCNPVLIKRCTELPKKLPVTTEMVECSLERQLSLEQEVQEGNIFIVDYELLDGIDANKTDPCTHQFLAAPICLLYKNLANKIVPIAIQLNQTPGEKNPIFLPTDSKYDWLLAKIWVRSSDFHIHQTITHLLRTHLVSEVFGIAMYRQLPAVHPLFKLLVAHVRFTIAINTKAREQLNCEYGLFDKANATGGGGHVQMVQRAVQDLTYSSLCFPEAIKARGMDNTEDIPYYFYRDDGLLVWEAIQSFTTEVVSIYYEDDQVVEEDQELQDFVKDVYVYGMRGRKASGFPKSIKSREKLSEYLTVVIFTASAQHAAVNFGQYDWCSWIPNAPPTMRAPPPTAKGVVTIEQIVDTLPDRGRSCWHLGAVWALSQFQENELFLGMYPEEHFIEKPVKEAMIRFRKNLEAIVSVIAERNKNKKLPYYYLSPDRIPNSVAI
# Description: as §1
# [6] = measured on PMNL, read-out: IC50 (concentration causing 50% inhibition of LTB4 formation), in parentheses (converted)
# Chain of COX-1 (P23219 24-599): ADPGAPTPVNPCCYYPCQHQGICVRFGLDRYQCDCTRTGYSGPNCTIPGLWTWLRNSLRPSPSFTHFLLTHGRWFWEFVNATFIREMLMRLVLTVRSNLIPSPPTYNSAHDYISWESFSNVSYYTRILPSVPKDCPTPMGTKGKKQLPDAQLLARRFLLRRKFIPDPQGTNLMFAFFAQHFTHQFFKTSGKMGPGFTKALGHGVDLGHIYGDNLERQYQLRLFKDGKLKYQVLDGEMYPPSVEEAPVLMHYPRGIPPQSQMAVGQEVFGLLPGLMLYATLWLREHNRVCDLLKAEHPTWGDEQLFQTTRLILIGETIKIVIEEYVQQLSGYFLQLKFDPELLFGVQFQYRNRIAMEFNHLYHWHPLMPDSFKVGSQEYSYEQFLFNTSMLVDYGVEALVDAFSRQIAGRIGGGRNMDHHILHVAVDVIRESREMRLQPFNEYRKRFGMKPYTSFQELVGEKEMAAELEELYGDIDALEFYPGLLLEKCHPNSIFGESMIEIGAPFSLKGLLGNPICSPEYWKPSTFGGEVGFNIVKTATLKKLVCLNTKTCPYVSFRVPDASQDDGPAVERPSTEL
Structure (SMILES),melting point [°C],"IC50 ([1]; PMNL, read-out: IC50 (5-LO, LTB4 formation)) [nM]",inhibition at 1 µM [1] [%],in vitro 5-LO activity in words [1],inhibition at 500 µM [2] [%],inhibition at 500 µM [4] [%],5-LO percent inhibition [5] [%],"IC50 [1, 6] [nM]","% inhibition (AAE test) ([3]; 4c 100 mg (ear) as printed, alone or co-applied with Indomethacin) [%]",change in vivo at 50 µg/ear [3] [%],change in vivo at 100 µg/ear [3] [%],change in vivo at 250 µg/ear [3] [%]
"O=C1C=C(Nc2ccc(Br)cn2)C(=O)c2ccccc21 [Compound 4l, 2-(5-Bromopyndin-2-ylamino)-[1,4]naphthoquinone]",243 to 244,–,100 ± 0.5,potent in vitro 5-LO inhibitors,16.8 ± 1.4,8 ± 3.6,85.5 ± 4.5,142,–,–,-42.2 ± 3.1,-30.6 ± 2.2
"CC1=CC(=O)C(Nc2ncccn2)=CC1=O [Compound 4p, 2-Methyl-5-(pyrimidin-2-ylamino)-[1,4]benzoquinone]",172 to 174,–,62 ± 1.7,–,8.4 ± 6.4,0,90.4 ± 3.3,–,–,–,–,–
"CC1=C(C)C(=O)C(Nc2nc(C)cc(C)n2)=CC1=O [Compound 4s, 2,3-Dirnethyl-5-(4,6-dimethylpyfimidin-2-ylamino)-[1,4]benzoquinone]",188 to 189,–,96 ± 1.7,potent in vitro 5-LO inhibitors,8.4 ± 11.6,3.3 ± 12.9,89.6 ± 2.3,175,–,-17.3 ± 1.1,-33.9 ± 3.9,–
"Cc1cc(C)nc(NC2=CC(=O)c3ccccc3C2=O)n1 [Compound 4t, 2-(4,6-Dimethylpyrimidin-2-ylamino)-[1,4]naphthoquinone]",196 to 197,–,98 ± 1.3,potent in vitro 5-LO inhibitors,8.2 ± 2.5,0,86.3 ± 3.0,161,–,-3.3 ± 1.6,–,–

# More lines, main results first:
melting point [°C],"IC50 ([1]; PMNL, read-out: IC50 (5-LO, LTB4 formation)) [nM]",inhibition at 1 µM [1] [%],in vitro 5-LO activity in words [1],inhibition at 500 µM [2] [%],inhibition at 500 µM [4] [%],5-LO percent inhibition [5] [%],"IC50 [1, 6] [nM]",Structure (SMILES),"% inhibition (AAE test) ([3]; 4c 100 mg (ear) as printed, alone or co-applied with Indomethacin) [%]",change in vivo at 50 µg/ear [3] [%],change in vivo at 100 µg/ear [3] [%],change in vivo at 250 µg/ear [3] [%]
137 to 139,18,94,potent in vitro 5-LO inhibitors,5.2 ± 6.2,20.1 ± 0.7,85.8 ± 13.1,–,"CC1=CC(=O)C(Nc2ccccn2)=CC1=O [Compound 4c, 2-Methyl-5-(pyridin-2-ylamino)-[1,4]benzoquinone]",66,-52.8 ± 6.4,-63.7 ± 3.9,-84.9 ± 2.4
79 to 81,–,92 ± 4.7,potent in vitro 5-LO inhibitors,11.2 ± 2.7,9.4 ± 0.4,95.4 ± 4.0,155,"COC1=C(OC)C(=O)C(Nc2ccccn2)=C(C)C1=O [Compound 4e, 2,3-Dimethoxy-5-methyl-6-(pyridin-2-ylamino)-[1,4]benzoquinone]",–,–,–,–
205 to 206,–,100 ± 0.4,potent in vitro 5-LO inhibitors,23.1 ± 4.6,16.5 ± 6.1,86.2 ± 10.0,45,"O=C1C=C(Nc2ccccn2)C(=O)c2ccccc21 [Compound 4i, 2-(Pyridin-2-ylamino)-[1,4]naphthoquinone]",–,–,-20.4 ± 2.1,–
245 to 247,–,98 ± 1.1,potent in vitro 5-LO inhibitors,14.4 ± 1.3,6.6 ± 14.9,96.4 ± 1.9,165,"O=C1C=C(Nc2ncccn2)C(=O)c2ccccc21 [Compound 4r, 2-(Pyrimidin-2-ylamino)-[1,4]naphthoquinone]",–,–,-40 ± 1.9,-29 ± 1.8
